Values joined by “and” are separate entries in the source; they are usually repeats but may differ in a detail not shown here. Equal entries are not always repeated. Structures can show the parent of a compound that is named as a salt. Where two headings read alike, the source gives them in different places.
Experiments:
[1] = target: S. pneumoniae recombinant NanA 20566_LC (Streptococcus pneumoniae, UniProt P62575); experiment: biochemical; parameters: species or system Streptococcus pneumoniae DSM20566
[2] = target: S. pneumoniae recombinant NanA 9400_CC (Streptococcus pneumoniae, UniProt P62575); experiment: biochemical; format: biochemical, Streptococcus pneumoniae CJ9400
[3] = target: S. pneumoniae recombinant NanA 20566_CC (Streptococcus pneumoniae, UniProt P62575); experiment: biochemical; parameters: species or system Streptococcus pneumoniae DSM20566
[4] = target: S. pneumoniae recombinant NanA 8919_LC (Streptococcus pneumoniae, UniProt P62575); experiment: biochemical; format: biochemical, Streptococcus pneumoniae CF8919
[5] = target: S. pneumoniae recombinant NanA 9400_LC (Streptococcus pneumoniae, UniProt P62575); experiment: biochemical; parameters: species or system Streptococcus pneumoniae CJ9400
[6] = target: Influenza virus A/WSN/33 NA-wt (whole virus) (Influenza A virus, UniProt P03470); format: biochemical, influenza A virus A/WSN/1933 (H1N1); details: for Km: Km for MUNANA, kinetics with 1
in vitro = details: dog
WSN/33 = format: cell-based, influenza A virus A/WSN/1933 (H1N1)
[7] = tested on: influenza A virus 8178/09; experiment: microbe, parasite or virus in culture; format: cell-based, influenza A virus A/Jena/8178/2009 (H1N1); details: Influenza A virus, MDCK, 48 h, read-out: 50% inhibitory concentration, influenza A virus 8178/09
[8] = target: T1, S. pneumoniae DSM20566 NA (NanA) (Streptococcus pneumoniae, UniProt P62575); experiment: FL NA inhibition assay, S. pneumoniae DSM20566; format: biochemical
T1 construct: host or cells: either rNanA from E. coli BL21(DE3) or total precipitated protein of S. pneumoniae DSM20566

IAV 5258/09 NA = experiment: Hemagglutination (HA)-based NA inhibition assay, IAV 5258/09; format: cell-based, influenza A virus A/Jena/5258/2009 (H1N1); details: human erythrocytes
[9] = tested on: Influenza virus A/Jena/8178/09; format: cell-based, influenza A virus A/Jena/8178/2009 (H1N1)
[10] = tested on: S. pneumoniae DSM20566 biofilm; experiment: Biofilm inhibition assay; format: cell-based, Streptococcus pneumoniae DSM20566; details: Streptococcus pneumoniae, DSM20566; 50 μM; read-out: Inhibition of biofilm formation at the maximum tested concentration
[11] = tested on: 8178/09-, WSN/33-, or HK/68-induced cytopathic effect; experiment: CPE inhibition assay (viruses not separated); format: cell-based; details: Influenza A virus, MDCK, read-out: IC50 of inhibition of the 8178/09-, WSN/33-, or HK/68-induced cytopathic effect
S. pneumoniae DSM20566 [12] = experiment: Bactericidal or bacteriostatic activity (subculture on blood agar); format: cell-based, Streptococcus pneumoniae DSM20566; details: for cfu per agar plate: 18 h, then subculture
S. pneumoniae DSM20566 [13] = experiment: Microtiter broth microdilution assay, planktonic growth; format: cell-based, Streptococcus pneumoniae DSM20566; details: Streptococcus pneumoniae, DSM20566; 18 h, maximum 50 μM; read-out: 50% inhibitory concentration, S. pneumoniae DSM20566 planktonic growth
[14] = target: T2, S. pneumoniae DSM20566 NA (Streptococcus pneumoniae, UniProt P62575); experiment: HA-based NA inhibition assay, S. pneumoniae DSM20566; format: cell-based
T2 construct: host or cells: either rNanA from E. coli BL21(DE3) or total precipitated protein of S. pneumoniae DSM20566

influenza A virus WSN/33 = experiment: microbe, parasite or virus in culture; format: cell-based, influenza A virus A/WSN/1933 (H1N1); details: Influenza A virus, WSN, MDCK, 48 h, read-out: 50% inhibitory concentration, influenza A virus WSN/33
influenza A virus HK/68 = experiment: microbe, parasite or virus in culture; format: cell-based, influenza A virus A/Hong Kong/68 (H3N2); details: Influenza A virus, MDCK, 48 h, read-out: 50% inhibitory concentration, influenza A virus HK/68
[15] = target: IAV HK/68 NA (whole virus) (Influenza A virus, UniProt Q91MA2); experiment: biochemical; parameters: species or system influenza A virus A/Hong Kong/68 (H3N2); details: NA inhibition using FL assay IC50, IAV HK/68
human erythrocytes [16] = format: cell-based
Procedure: (§1) Viral (whole virus) and bacterial NA activity as well as their inhibition were measured by using a fluorescence (FL) assay with the substrate 2′-(4-methylumbelliferyl)-α-D-N-acetylneuraminic acid sodium salt hydrate (MUNANA, 100 μM; Sigma-Aldrich GmbH, Taufkirchen, Germany), and/or a hemagglutination (HA)-based NA inhibition assay (HA assay) with human erythrocytes (Institute of Transfusion Medicine, University Hospital Jena, Jena, Germany), both assays as published recently (Richter et al., [2015]). Recombinant NanA (rNanA) and total precipitated bacterial protein of S. pneumoniae DSM20566 were used in FL and HA assays. Interference of the compounds with the FL signal (self-fluorescence and quenching) was excluded as described previously (Richter et al., [2015]). […] Each compound was tested at least three times in both NA inhibition assays.
Supplementary Table 1. Assay interference phenomena of test compounds in the HA-based […]
sample concentrations [µM] in viral HA-assay bacterial HA-assay […]
hem- prevention of erythrocyte hem- erythrocyte agglutinationa virus-induced lysisc agglutinationd lysise […]
cTest compounds lysed the human erythrocytes (2 h at 4°C). […]

human erythrocytes [17] = format: cell-based; remark: listed apart in the source
Procedure: as §1
Supplementary Table 1. […]
eTest compounds lysed the human erythrocytes (4 h at 37°C and 12 h at 4°C).

Sequence of S. pneumoniae recombinant NanA 20566_CC (P62575 311-833): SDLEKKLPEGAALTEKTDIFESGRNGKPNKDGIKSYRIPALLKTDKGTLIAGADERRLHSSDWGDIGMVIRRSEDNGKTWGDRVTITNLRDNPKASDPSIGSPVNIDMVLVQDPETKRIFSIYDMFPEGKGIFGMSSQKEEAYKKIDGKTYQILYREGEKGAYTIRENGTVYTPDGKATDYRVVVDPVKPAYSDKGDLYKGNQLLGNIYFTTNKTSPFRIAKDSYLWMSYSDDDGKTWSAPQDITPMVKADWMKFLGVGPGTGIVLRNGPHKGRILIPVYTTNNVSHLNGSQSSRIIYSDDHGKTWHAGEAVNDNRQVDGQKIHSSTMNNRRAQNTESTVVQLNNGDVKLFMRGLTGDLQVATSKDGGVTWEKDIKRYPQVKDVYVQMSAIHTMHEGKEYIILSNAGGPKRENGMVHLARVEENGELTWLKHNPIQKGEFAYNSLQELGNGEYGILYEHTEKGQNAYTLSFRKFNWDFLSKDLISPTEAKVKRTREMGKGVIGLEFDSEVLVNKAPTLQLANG
Sequence of S. pneumoniae recombinant NanA 9400_CC (P62575 311-833): as above
Sequence of Influenza virus A/WSN/33 NA-wt (whole virus) (P03470 whole entry, looked up): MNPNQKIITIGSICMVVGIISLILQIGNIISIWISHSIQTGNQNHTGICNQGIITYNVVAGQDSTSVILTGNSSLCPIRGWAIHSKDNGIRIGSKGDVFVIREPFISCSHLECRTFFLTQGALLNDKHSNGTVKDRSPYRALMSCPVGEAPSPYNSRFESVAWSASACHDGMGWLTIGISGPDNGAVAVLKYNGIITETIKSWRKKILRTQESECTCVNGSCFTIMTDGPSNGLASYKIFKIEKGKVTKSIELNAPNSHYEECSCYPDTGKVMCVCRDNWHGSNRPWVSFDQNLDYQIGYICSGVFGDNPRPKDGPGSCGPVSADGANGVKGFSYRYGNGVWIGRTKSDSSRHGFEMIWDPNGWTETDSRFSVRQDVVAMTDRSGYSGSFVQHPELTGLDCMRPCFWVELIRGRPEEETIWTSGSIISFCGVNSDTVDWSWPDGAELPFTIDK
Sequence of S. pneumoniae recombinant NanA 8919_LC (P62575 116-833): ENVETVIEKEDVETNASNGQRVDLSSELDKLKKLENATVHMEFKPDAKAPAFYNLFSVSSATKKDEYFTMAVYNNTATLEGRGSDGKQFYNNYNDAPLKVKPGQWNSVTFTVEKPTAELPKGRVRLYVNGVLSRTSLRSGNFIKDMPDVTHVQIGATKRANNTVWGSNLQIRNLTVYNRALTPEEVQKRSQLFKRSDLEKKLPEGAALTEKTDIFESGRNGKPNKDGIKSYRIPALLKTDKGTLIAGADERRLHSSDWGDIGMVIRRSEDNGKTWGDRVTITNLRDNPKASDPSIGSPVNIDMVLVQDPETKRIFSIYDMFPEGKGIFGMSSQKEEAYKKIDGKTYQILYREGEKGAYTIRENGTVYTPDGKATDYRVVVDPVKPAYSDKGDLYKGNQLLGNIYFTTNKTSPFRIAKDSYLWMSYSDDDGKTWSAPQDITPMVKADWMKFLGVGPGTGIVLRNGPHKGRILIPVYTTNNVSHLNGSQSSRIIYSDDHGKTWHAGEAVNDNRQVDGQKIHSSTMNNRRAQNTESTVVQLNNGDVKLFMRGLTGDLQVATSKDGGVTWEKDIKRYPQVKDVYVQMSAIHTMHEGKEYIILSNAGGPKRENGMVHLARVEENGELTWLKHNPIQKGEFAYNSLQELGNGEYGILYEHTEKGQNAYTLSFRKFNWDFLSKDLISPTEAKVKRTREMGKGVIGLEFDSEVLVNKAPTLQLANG
Sequence of S. pneumoniae recombinant NanA 9400_LC (P62575 116-833): as above
Sequence of S. pneumoniae recombinant NanA 20566_LC (P62575 116-833): as above
T1 sequence (P62575 54-1035): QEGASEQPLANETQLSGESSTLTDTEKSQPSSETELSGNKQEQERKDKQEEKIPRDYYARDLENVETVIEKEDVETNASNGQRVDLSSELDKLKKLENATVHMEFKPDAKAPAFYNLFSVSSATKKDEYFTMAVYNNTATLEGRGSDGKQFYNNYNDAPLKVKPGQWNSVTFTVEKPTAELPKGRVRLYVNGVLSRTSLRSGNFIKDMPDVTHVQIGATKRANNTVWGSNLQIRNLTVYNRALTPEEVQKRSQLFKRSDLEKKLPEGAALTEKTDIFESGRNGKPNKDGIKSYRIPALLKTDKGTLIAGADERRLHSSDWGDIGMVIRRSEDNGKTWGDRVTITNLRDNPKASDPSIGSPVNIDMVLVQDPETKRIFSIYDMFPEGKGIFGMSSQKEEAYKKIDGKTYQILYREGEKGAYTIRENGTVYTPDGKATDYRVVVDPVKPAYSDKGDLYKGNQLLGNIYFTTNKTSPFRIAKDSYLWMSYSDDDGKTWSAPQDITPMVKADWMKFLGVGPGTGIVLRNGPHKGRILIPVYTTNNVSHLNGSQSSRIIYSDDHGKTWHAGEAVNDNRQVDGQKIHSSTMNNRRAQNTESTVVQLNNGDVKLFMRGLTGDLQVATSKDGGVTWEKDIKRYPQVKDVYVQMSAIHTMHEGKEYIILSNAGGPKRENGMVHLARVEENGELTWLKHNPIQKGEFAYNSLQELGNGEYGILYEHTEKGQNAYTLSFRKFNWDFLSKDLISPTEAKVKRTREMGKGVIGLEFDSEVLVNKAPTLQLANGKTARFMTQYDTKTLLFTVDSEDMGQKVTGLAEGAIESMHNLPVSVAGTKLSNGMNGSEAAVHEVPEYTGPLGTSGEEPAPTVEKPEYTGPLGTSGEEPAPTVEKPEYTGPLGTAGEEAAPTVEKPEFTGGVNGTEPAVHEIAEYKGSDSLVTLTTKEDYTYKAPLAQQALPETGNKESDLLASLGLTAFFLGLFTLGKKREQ

`CC(=O)N[C@H]1[C@H]([C@H](O)[C@H](O)CO)O[C@@](Oc2ccc3c(C)cc(=O)oc3c2)(C(=O)O)C[C@@H]1O` [MUNANA, 2′-(4-methylumbelliferyl)-α-D-N-acetylneuraminic acid sodium salt hydrate, reference compound] gave a Km ([1]; Km for MUNANA, kinetics with 1) of 17.9 ± 2.12 µM, a Km ([2]; Km for MUNANA, kinetics with 1) of 46.4 ± 3.93 µM and a Km ([3]; Km for MUNANA, kinetics with 1) of 20.2 ± 4.74 µM. The Km ([4]; Km for MUNANA, kinetics with 1) was 18 ± 2.39 µM, the Km ([5]; Km for MUNANA, kinetics with 1) was 46.2 ± 1.71 µM and the Km ([6]; 20 min preincubation) was 44.2 ± 4.63 µM. It also gave a Km ([6]; without preincubation (n = 2)) of 40 ± 3.86 µM.
With `Cc1cc(N=Nc2ccc(N=Nc3c(O)c(S(=O)(=O)O)cc4cc(S(=O)(=O)O)ccc34)cc2C)ccc1N=Nc1ccc2cc(S(=O)(=O)O)cc(S(=O)(=O)O)c2c1` [Compound 1, 7-[2-[4-[2-[4-[2-(2-hydroxy-3,6-disulfo-1-naphthalenyl)diazenyl]-2-methylphenyl]diazenyl]-2-methylphenyl]diazenyl]-1,3-naphthalenedisulfonic acid] the CC50 (in vitro) was greater than 100 µM, the Binding mechanism [1] was “Mixed” and the “alpha (fit in Lineweaver-Burk plot, Supplementary Figure 2B)” value [1] was 12,9. For the same compound, the Ki ([1]; Ki) was 120 ± 10 nM, the Ki ([1]; Ki (fit in Lineweaver-Burk plot, Supplementary Figure 2B)) was 103 nM and the Binding mechanism [2] was “Mixed”. The Ki [2] was 160 ± 10 nM, the “alpha (fit printed in Lineweaver-Burk plot, Supplementary Figure 2E)” value [2] was 3,7 and the “Decrease of plaque formation, compound during the whole replication cycle” value (WSN/33) was “up to 100%”. For the same compound, the “Plaque numbers after pretreatment of MDCK cells” value (WSN/33) was “not affected”, the “Reduction of plaque number after pretreatment of the cell-free virus” value (WSN/33) was ~ 95% and the “Reduction of plaque number, compound added during virus adsorption” value (WSN/33) was 50%. For the same compound, the IC50 [7] was 20.4 ± 2.51 µM, the Binding mechanism [3] was “Mixed” and the “alpha (fit in Lineweaver-Burk plot, Supplementary Figure 2C)” value [3] was 5,5. The Ki ([3]; Ki) was 160 ± 30 nM, the Ki ([3]; Ki (fit in Lineweaver-Burk plot, Supplementary Figure 2C)) was 143 nM and the Binding mechanism [4] was “Mixed”. For the same compound, the Ki [4] was 110 ± 20 nM, the “alpha (fit printed in Lineweaver-Burk plot, Supplementary Figure 2A)” value [4] was 7,8 and the IC50 ([8]; MUNANA substrate, read-out: NA inhibition using FL assay IC50, S. p. DSM20566) was 320 ± 50 nM. For the same compound, the Binding mechanism [5] was “Mixed”, the Ki ([5]; Ki) was 190 ± 20 nM and the Ki ([5]; Ki (fit printed in Lineweaver-Burk plot, Supplementary Figure 2D)) was 172 nM. For the same compound, the “NA inhibition using HA assay MIC, IAV 5258/09” value (IAV 5258/09 NA) was 10.00 ± 0.00 µM, the “Mean reduction in plaque numbers ± SD” value [9] was 96.10 ± 3.45% and 96.46 ± 1.08% and 97.76 ± 0.65% and 94.12 ± 3.06% and the “Mean ± SD of both experiments, reduction in plaque numbers” value [9] was 95.29 ± 1.65% and 96.93 ± 1.17%. For the same compound, the inhibition at 50 µM [10] was 49%, the IC50 [11] was less than 15 µM and the “Activity (bactericidal or bacteriostatic)” value (from here on “Activity”) (S. pneumoniae DSM20566 [12]; 50 µM) was “bacteriostatic”. The “cfu per agar plate” value (S. pneumoniae DSM20566 [12]; 50 µM) was greater than 150, the Binding mechanism [6] was “Mixed” and the “binding kinetics (effect of pre-incubation on Ki)” value [6] was “fast-binding inhibitor”. For the same compound, the IC50 (S. pneumoniae DSM20566 [13]) was 28.8 ± 13.1 µM, the “NA inhibition using HA assay MIC, S. p. DSM20566” value ([14]; human erythrocytes) was 7.26 ± 3.75 µM and the IC50 (influenza A virus WSN/33) was 7.17 ± 0.96 µM. The IC50 (influenza A virus HK/68) was 18.5 ± 9.59 µM, the IC50 [15] was 1.42 ± 0.44 µM and the “sample concentrations provoking erythrocyte lysis, viral HA-assay” value (human erythrocytes [16]; human erythrocytes, 2 h at 4°C) was “no”. For the same compound, the “sample concentrations provoking erythrocyte lysis, bacterial HA-assay” value (human erythrocytes [17]; human erythrocytes, 4 h at 37°C and 12 h at 4°C) was “no”.
For `O=S(=O)(O)c1ccc2c(/N=N/c3ccc(Sc4ccc(/N=N/c5c(O)ccc6cc(S(=O)(=O)O)ccc56)cc4)cc3)c(O)ccc2c1` [Compound 2], the CC50 (in vitro) was greater than 100 µM, the IC50 [7] was 9.09 ± 1.94 µM and the IC50 ([8]; NA inhibition using FL assay IC50, S. p. DSM20566) was 1850 ± 100 nM. The inhibition at 50 µM [10] was 47%, the IC50 [11] was less than 15 µM and the “Activity” value (S. pneumoniae DSM20566 [12]; 25 µM) was “bacteriostatic”. The “cfu per agar plate” value (S. pneumoniae DSM20566 [12]; 25 µM) was greater than 150, the “Activity” value (S. pneumoniae DSM20566 [12]; 50 µM) was “bacteriostatic” and the “cfu per agar plate” value (S. pneumoniae DSM20566 [12]; 50 µM) was greater than 150. The IC50 (S. pneumoniae DSM20566 [13]) was 4.59 ± 2.45 µM, the “NA inhibition using HA assay MIC, S. p. DSM20566” value [14] was 10.00 ± 0.00 µM and the IC50 (influenza A virus WSN/33) was 11.8 ± 3.19 µM. The IC50 (influenza A virus HK/68) was 6.19 ± 4.62 µM, the IC50 [15] was 83 ± 5.67 µM and the “sample concentrations provoking erythrocyte lysis, viral HA-assay” value (human erythrocytes [16]) was “no”. The “sample concentrations provoking erythrocyte lysis, bacterial HA-assay” value (human erythrocytes [17]) was “no”.

From article PMC5309245, “Discovery and Characterization of Diazenylaryl Sulfonic Acids as Inhibitors of Viral and Bacterial Neuraminidases” (Frontiers in Microbiology, 2017)
